# Measurements as given in patent US12351559B2 (Biohaven Therapeutics Ltd., priority 2014, dated 2025).
# Biological target: T1, Kv7.2/7.3 (Homo sapiens, UniProt O43525+O43526)
# T1 construct: host or cells: HEK cells, tetracycline-inducible expression
# Assay: Kv7.2/7.3 activation assay, QPatch planar patch-clamp, single concentration screen
# Format: cell-based
# Parameters: key: <1.2-fold increase over baseline (−); +/−: as a range from <1.2-fold increase over baseline (−) up to >6-fold increase over baseline (+++); as a range from <1.2-fold increase over baseline (−) up to >6-fold increase over baseline (+++); as a range from <1.2-fold increase over baseline (−) up to >6-fold increase over baseline (+++); >6-fold increase over baseline (+++)
# Settings: Kv7.2/Kv7.3 co-expressing HEK cells, compound 3 μM, steady-state current at end of 2 s pulse to −30 mV
# Experimental: The ability of compounds to potentiate K-currents in Kv7.2/7.3 containing HEK cells was assessed using planar patch-clamp on the QPatch automated screening platform.
# Cell Line: The hKv7.2/7.3 cell line was obtained from Chantest (Cleveland, OH 44128) cat. #CT6147. These HEK cells will express the Kv7.2/7.3 ion channels when induced.
# Cell Culture: Cells were maintained in a media containing DMEM/F12; 50/50 (GIBCO cat. #11330), 10% Fetal Bovine Serum (FBS) (GIBCO cat. #26140), 100 units/mL Penicillin-Streptomycin (GIBCO cat. #15140), 0.005 mg/mL Blasticidin (INVIVOGEN cat. #ant-bl-1), 0.5 mg/mL Geneticin (GIBCO cat. #10131), 0.1 mg/ml Zeocin (GIBCO cat. #R25001). Cells used in the electrophysiology assay were maintained in a media without Blasticidin, Geneticin and Zeocin for 2 days and channel expression was induced by adding tetracycline (BIOLINE cat. #BIO-87030) at a final concentration of 1 mg/mL. Cells were grown in T-175 flask to ˜75% confluency. Currents were recorded 24 hours after channel induction.
# Compound Plates: Test compounds were prepared by performing serial dilutions on a Biomek NX^P (BECKMAN COULTER). Final dilutions were made in external recording solution with a final DMSO concentration of 0.1% DMSO. For single concentration screens each plate had 10 μM retigabine as a positive control and 0.1% DMSO as a negative control.
# Electrophysiology: On the day of the experiment cells were washed with Hank's Balanced Salt Solution (HBBS) (GIBCO cat. #14175) and harvested with Tryple (GIBCO cat. #12604). Cells were then centrifuged at 2000 rpm for 5 minutes and resuspended in CHO-S-SFM (GIBCO cat. #12052) at ˜3×10^6 cells/mL. Cells were stirred for 30 minutes before experiments were started. External recording solution contained (in mM): NaCl (145), KCl (4), CaCl2 (2), MgCl2 (1), HEPES (10) and Glucose (10); pH was adjusted to 7.4 with NaOH and the osmolarity was adjusted to 300-305 mOsM with sucrose if necessary. Internal solution contained (in mM): KCl (125), KF (10), EGTA (5), Na2ATP (5), MgCl2 (3.2), HEPES (5); pH was adjusted to 7.2 with KOH and the osmolarity was adjusted to 298-302 mOsM with sucrose.
# Potassium channel activity was measured on the QPatch HTX (Sophion Bioscience) using QPlates with 48-wells/plate. Each cell was taken as an independent experiment and only one compound was tested per well. Potassium channel activity was elicited by holding at −80 mV and stepping to −30 mV for 2 s followed by a 100 ms pulse to −120 mV.
# Single concentration screen: Baseline conditions were obtained by recording 5 sweeps in the external solution only, this was repeated for three applications of the external solution. […] The steady-state current at the end of the 2 s pulse to −30 mV was measured to determine the fold increase from baseline.
row,Compound,Kv7.2/7.3 Activity: increase in current over baseline
1,"CC(C)(C)CC(=O)Nc1nc2cccc(C(C)(C)O)c2n1C1CCC1 [Example 82, N-(1-cyclobutyl-7-(2-hydroxypropan-2-yl)-1H-benzo[d]imidazol-2-yl)-3,3-dimethylbutanamide]",+/−
2,"Cc1cc2nc(NC(=O)C[C@](C)(O)c3ccccc3F)n(C(C)(C)C)c2cc1C#N [Example 122, (S)-N-(1-(tert-butyl)-6-cyano-5-methyl-1H-benzo[d]imidazol-2-yl)-3-(2-fluorophenyl)-3-hydroxybutanamide]",++
3,"CC(C)(C)CC(=O)Nc1nc2ccc(C(C)(C)O)cc2n1C1CCC1 [Example 53, N-(1-cyclobutyl-6-(2-hydroxypropan-2-yl)-1H-benzo[d]imidazol-2-yl)-3,3-dimethylbutanamide]",+
4,"C[C@](O)(CC(=O)Nc1nc2ccc(C#N)cc2n1C1CCC1)c1ccccn1 [Example 20, (S)-N-(6-cyano-1-cyclobutyl-1H-benzo[d]imidazol-2-yl)-3-hydroxy-3-(pyridin-2-yl)butanamide]",+
5,"CC(C)(C)CC(=O)Nc1nc2ccc(CC(=O)O)c(F)c2n1C1CCC1 [Example 117, 2-(1-cyclobutyl-2-(3,3-dimethylbutanamido)-7-fluoro-1H-benzo[d]imidazol-6-yl)acetic acid]",+/−
6,"C[C@@H](C(=O)Nc1nc2ccc(C#N)cc2n1C1CCC1)C(C)(C)C [Example 76, (R)-N-(6-cyano-1-cyclobutyl-1H-benzo[d]imidazol-2-yl)-2,3,3-trimethylbutanamide]",+
7,"CC(C)(O)c1ccc2nc(NC(=O)C[C@](C)(O)c3ccccc3)n(C3CCC3)c2c1 [Example 84, (S)-N-(1-cyclobutyl-6-(2-hydroxypropan-2-yl)-1H-benzo[d]imidazol-2-yl)-3-hydroxy-3-phenylbutanamide]",+
8,"CN(C)C(=O)Cc1ccc2nc(NC(=O)CC(C)(C)C)n(C3CCC3)c2c1F [Example 118, N-(1-cyclobutyl-6-(2-(dimethylamino)-2-oxoethyl)-7-fluoro-1H-benzo[d]imidazol-2-yl)-3,3-dimethylbutanamide]",+
9,"CC(O)c1ccc2nc(NC(=O)CC(C)(C)C)n(C3CCC3)c2c1 (centres unmarked) [Example 55, N-(1-cyclobutyl-6-(1-hydroxyethyl)-1H-benzo[d]imidazol-2-yl)-3,3-dimethylbutanamide]",+
10,"Cc1cc2nc(NC(=O)CC(C)(C)O)n(C(C)(C)C)c2cc1C#N [Example 128, N-(1-(tert-butyl)-6-cyano-5-methyl-1H-benzo[d]imidazol-2-yl)-3-hydroxy-3-methylbutanamide]",+/−
11,"Cc1cc(-n2c(NC(=O)[C@@H](C)C(C)(C)C)nc3ccc(C(F)(F)F)cc32)on1 [Example 48, (S)-2,3,3-trimethyl-N-(1-(3-methylisoxazol-5-yl)-6-(trifluoromethyl)-1H-benzo[d]imidazol-2-yl)butanamide]",+++ (>6-fold increase over baseline (+++))
12,"CC(O)(CC(=O)Nc1nc2ccc(C#N)cc2n1C1CCC1)C1CCCC1 (centres unmarked) [Example 80, N-(6-cyano-1-cyclobutyl-1H-benzo[d]imidazol-2-yl)-3-cyclopentyl-3-hydroxybutanamide]",+
13,"C[C@H](C(=O)Nc1nc2ccc(C#N)cc2n1C1CCC1)C1(O)CCC1 [Example 27, (S)-N-(6-cyano-1-cyclobutyl-1H-benzo[d]imidazol-2-yl)-2-(1-hydroxycyclobutyl)propanamide]",+/−
14,"C[C@@](O)(CC(=O)Nc1nc2cc(C(F)(F)F)cc(F)c2n1C1CCC1)C(F)(F)F [Example 132, (R)-N-(1-cyclobutyl-7-fluoro-5-(trifluoromethyl)-1H-benzo[d]imidazol-2-yl)-4,4,4-trifluoro-3-hydroxy-3-methylbutanamide]",+/−
15,"CC(C)c1ccc2nc(NC(=O)CC(C)(C)C)n(C3CCC3)c2c1 [Example 64, N-(1-cyclobutyl-6-isopropyl-1H-benzo[d]imidazol-2-yl)-3,3-dimethylbutanamide]",++
16,"CC(C(=O)Nc1nc2ccc(C#N)cc2n1C1CCC1)C(C)(C)C (centres unmarked) [Example 77, N-(6-cyano-1-cyclobutyl-1H-benzo[d]imidazol-2-yl)-2,3,3-trimethylbutanamide]",+
17,"CC1(n2c(NC(=O)C[C@](C)(O)c3ccccc3)nc3ccc(C#N)cc32)CCC1 [Example 95, (S)-N-(6-cyano-1-(1-methylcyclobutyl)-1H-benzo[d]imidazol-2-yl)-3-hydroxy-3-phenylbutanamide]",++

# More lines, now with the values ahead:
row,Kv7.2/7.3 Activity: increase in current over baseline,Compound
1,+,"O=C(CC(C(F)(F)F)C(F)(F)F)Nc1nc2ccc(C(F)(F)F)cc2n1C1CCC1 [Example 39, N-(1-cyclobutyl-6-(trifluoromethyl)-1H-benzo[d]imidazol-2-yl)-4,4,4-trifluoro-3-(trifluoromethyl)butanamide]"
2,+,"CCOC(=O)Cc1ccc2nc(NC(=O)[C@H]3CC3(C)C)n(C3CCC3)c2c1F [Example 111, ethyl (S)-2-(1-cyclobutyl-2-(2,2-dimethylcyclopropane-1-carboxamido)-7-fluoro-1H-benzo[d]imidazol-6-yl)acetate]"
3,+,"CC(C)(O)CC(=O)Nc1nc2ccc(C(F)(F)F)cc2n1-c1ccc(OC(F)(F)F)c(F)c1 [Example 144, N-(1-(3-fluoro-4-(trifluoromethoxy)phenyl)-6-(trifluoromethyl)-1H-benzo[d]imidazol-2-yl)-3-hydroxy-3-methylbutanamide]"
4,+/−,"C[C@](O)(C(=O)Nc1nc2ccc(C#N)cc2n1C1CCC1)C(F)(F)F [Example 16, (S)-N-(6-cyano-1-cyclobutyl-1H-benzo[d]imidazol-2-yl)-3,3,3-trifluoro-2-hydroxy-2-methylpropanamide]"
5,++,"CC(C)[C@H](C)C(=O)Nc1nc2ccc(C(C)(C)O)cc2n1C1CCC1 [Example 54, (S)-N-(1-cyclobutyl-6-(2-hydroxypropan-2-yl)-1H-benzo[d]imidazol-2-yl)-2,3-dimethylbutanamide]"
6,+,"CN(C)C(CC(=O)Nc1nc2ccc(C#N)cc2n1C1CCC1)C(F)(F)F (centres unmarked) [Example 24, N-(6-cyano-1-cyclobutyl-1H-benzo[d]imidazol-2-yl)-3-(dimethylamino)-4,4,4-trifluorobutanamide]"
7,+,"Cc1cc(-n2c(NC(=O)[C@H]3CC3(C)C)nc3ccc(C(F)(F)F)cc32)on1 [Example 45, (S)-2,2-Dimethyl-N-(1-(3-methylisoxazol-5-yl)-6-(trifluoromethyl)-1H-benzo[d]imidazol-2-yl)cyclopropanecarboxamide]"
8,+,"CC(C)(O)Cc1ccc2nc(NC(=O)[C@H]3CC3(C)C)n(-c3ccc(F)cc3)c2c1F [Example 115, (S)-N-(7-fluoro-1-(4-fluorophenyl)-6-(2-hydroxy-2-methylpropyl)-1H-benzo[d]imidazol-2-yl)-2,2-dimethylcyclopropane-1-carboxamide]"
9,+/−,"CC(C)(O)c1ccc2nc(NC(=O)CC(O)(C(F)(F)F)C(F)(F)F)n(-c3ccc(F)cc3)c2c1 [Example 131, 4,4,4-trifluoro-N-(1-(4-fluorophenyl)-6-(2-hydroxypropan-2-yl)-1H-benzo[d]imidazol-2-yl)-3-hydroxy-3-(trifluoromethyl)butanamide]"
